# Columns and labels:
# [1] = tested on: BGC-823: human gastric cancer cells; experiment: Cell viability (CCK8) assay, BGC-823; assay type: cell-based; settings: BGC-823 cells; for IC50: CCK8, 48 h; for cytotoxic activity (cells sensitive to compound), BGC-823: result in words
# Experimental: (§1) All cell lines were purchased from the Cell Bank of China Science Academy (Shanghai, China) and maintained in Dulbecco’s Modified Eagle Medium (DMEM) supplemented with 10% fetal bovine serum and 100 U/mL penicillin-streptomycin, and incubated at 37 °C in an atmosphere of 5% CO2. Cell viability was evaluated by the CCK8 assay kit (Dojindo Laboratories, Tokyo, Japan) according to the manufacturer’s instructions. Exponentially growing cells were seeded at 2–8 × 10^3 cells per well in 96-well culture plates for 24 h. Cells were exposed to increasing concentrations (0–80 μM) of 4, 5, 6, or 5-FU for 48 h. The equal volume of DMSO was used as the solvent control. CCK8 solution (10 μL) was added to each well and incubated for another 1–4 h. Light absorbance of the solution was measured at 450 nm (Epoch 2; BioTek Instruments, Inc. Winooski, VT, USA). The IC50 values were calculated using the GraphPad prism 7 and analyzed by fitting a curve using nonlinear regression. page 53: Figure S63. The calculated and the experimental ECD spectra of 5 and 6. Figure S64. Cytotoxic effects of compound-4,compound-5, compound-6 and 5-FU on human cancer cells (A, B, C) and normal cells (D) Cells were treated with various concentrations of compound-4,compound-5, compound-6 and 5-FU for 48 h. Cytotoxic effect of the compounds was determined by CCK8 assay. Percentages of viable cells were calculated by comparing treated and solvent control cells. Data are the mean ± S.D. of three replicates. […]
# [2] = tested on: KYSE30: human esophageal cancer cells; experiment: Cell viability (CCK8) assay, KYSE30; assay type: cell-based; settings: for cytotoxic activity (cells sensitive to compound), KYSE30: result in words
# Experimental: as §1
# [3] = tested on: A549: human lung cancer cells; experiment: Cell viability (CCK8) assay, A549; assay type: cell-based; settings: for IC50: CCK8, 48 h
# Experimental: as §1
# [4] = Cell viability (CCK8) assay, HDF normal cells; assay type: cell-based, human; settings: human, HDF cells (normal human embryonic lung fibroblasts), CCK8, 48 h
# Experimental: as §1
# [5] = tested on: HDF: normal human embryonic lung fibroblasts; experiment: Cell viability (CCK8) assay, HDF normal cells; assay type: cell-based; settings: CCK8, 48 h
# Experimental: as §1
# [6] = Homo sapiens, KYSE-30, CCK8, 48 h
SMILES,IC50 ([1]; Homo sapiens),"IC50 [2, 6]","IC50 ([3]; Homo sapiens, A549, 48 h)",IC50 [1],"IC50 ([2]; CCK8, 48 h)",IC50 [3],IC50 at 48 h [4],"cytotoxic activity (cells sensitive to compound), BGC-823 [1]","cytotoxic activity (cells sensitive to compound), KYSE30 [2]",IC50 [5],"cytotoxic activity (cells sensitive to compound), A549 ([3]; result in words)"
"C/C(=C\CC/C(=C/CC/C(=C/Cc1cc(O)ccc1O)C(=O)O)CO)COC(=O)/C=C/c1ccc(O)cc1 [Compound 3, (2Z,5Z,9E)-2-(2-(2,5-dihydroxyphenyl)ethylidene)-6-(hydroxymethyl)-11-(((E)-3-(4-hydroxyphenyl)acryloyl)oxy)-10-methylundeca-5,9-dienoic acid]",> 160 µM,> 160 µM,> 160 µM,–,–,–,> 160 µM,–,–,–,–
"O=c1[nH]cc(F)c(=O)[nH]1 [Compound 5-FU, reference compound]",–,–,–,37.7 ± 1.87 µM,8.43 ± 0.19 µM,35 ± 2.42 µM,–,–,–,51.1 ± 2.43 µM,–
"CC(=CCCC1=CCC[C@@](CC(=O)c2cc(O)ccc2O)(C(=O)O)OC1)CO [(−)-1, (R,E)-2-(2-(2,5-dihydroxyphenyl)-2-oxoethyl)-6-(5-hydroxy-4-methylpent-3-en-1-yl)-2,3,4,7-tetrahydrooxepine-2-carboxylic acid]",> 160 µM,> 160 µM,> 160 µM,–,–,–,> 160 µM,–,–,–,–
"C/C(=C\CCC1=CCC[C@](CC(=O)c2cc(O)ccc2O)(C(=O)O)OC1)COC(=O)/C=C/c1ccc(O)cc1 [(+)-2, (S)-2-(2-(2,5-dihydroxyphenyl)-2-oxoethyl)-6-((E)-5-(((E)-3-(4-hydroxyphenyl)acryloyl)oxy)-4-methylpent-3-en-1-yl)-2,3,4,7-tetrahydrooxepine-2-carboxylic acid]",> 160 µM,> 160 µM,> 160 µM,–,–,–,> 160 µM,–,–,–,–
"COC(=O)/C(=C\C(=O)c1cc(O)ccc1O)CC/C=C(\CO)CC/C=C(\C)COC(=O)/C=C/c1ccc(O)cc1 [Compound 4, (2Z,5Z,9E)-methyl 2-(2-(2,5-dihydroxyphenyl)-2-oxoethylidene)-6-(hydroxymethyl)-11-(((E)-3-(4-hydroxyphenyl)acryloyl)oxy)-10-methylundeca-5,9-dienoate]",> 160 µM,> 160 µM,63.4 to 80.8 µM,–,–,72.1 ± 8.7 µM,> 160 µM,–,–,–,sensitive

# Now from value to molecule, other results behind:
IC50 ([1]; Homo sapiens),"IC50 [2, 6]","IC50 ([3]; Homo sapiens, A549, 48 h)",IC50 [1],"IC50 ([2]; CCK8, 48 h)",IC50 [3],SMILES,IC50 at 48 h [4],"cytotoxic activity (cells sensitive to compound), BGC-823 [1]","cytotoxic activity (cells sensitive to compound), KYSE30 [2]",IC50 [5],"cytotoxic activity (cells sensitive to compound), A549 ([3]; result in words)"
> 160 µM,> 160 µM,> 160 µM,–,–,–,"C/C(=C/CC/C(=C/C(=O)c1cc(O)ccc1O)C(=O)O)CO [Compound 7, (2Z,5Z)-2-(2-(2,5-dihydroxyphenyl)-2-oxoethylidene)-7-hydroxy-6-methylhept-5-enoic acid]",> 160 µM,–,–,–,–
> 160 µM,> 160 µM,> 160 µM,–,–,–,"CC(=CCCC1=CCC[C@](CC(=O)c2cc(O)ccc2O)(C(=O)O)OC1)CO [(+)-1, (S,E)-2-(2-(2,5-dihydroxyphenyl)-2-oxoethyl)-6-(5-hydroxy-4-methylpent-3-en-1-yl)-2,3,4,7-tetrahydrooxepine-2-carboxylic acid]",> 160 µM,–,–,–,–
59.2 ± 2.73 µM,76.3 ± 1.93 µM,> 160 µM,–,–,–,"C/C(=C\C[C@H](O)/C(=C/CCC1=C[C@H](c2cc(O)ccc2O)OC1=O)CO)COC(=O)/C=C/c1ccc(O)cc1 [Compound 5, (E)-(S,2E,6E)-9-((R)-5-(2,5-dihydroxyphenyl)-2-oxo-2,5-dihydrofuran-3-yl)-5-hydroxy-6-(hydroxymethyl)-2-methylnona-2,6-dien-1-yl 3-(4-hydroxyphenyl)acrylate]",> 160 µM,sensitive,sensitive,–,–
64.25 ± 0.37 µM,85.4 ± 2.82 µM,> 160 µM,–,–,–,"C/C(=C\C[C@H](O)/C(=C/CCC1=C[C@@H](c2cc(O)ccc2O)OC1=O)CO)COC(=O)/C=C/c1ccc(O)cc1 [Compound 6, (E)-(S,2E,6E)-9-((S)-5-(2,5-dihydroxyphenyl)-2-oxo-2,5-dihydrofuran-3-yl)-5-hydroxy-6-(hydroxymethyl)-2-methylnona-2,6-dien-1-yl 3-(4-hydroxyphenyl)acrylate]",> 160 µM,sensitive,sensitive,–,–
> 160 µM,> 160 µM,> 160 µM,–,–,–,"C/C(=C\CCC1=CCC[C@@](CC(=O)c2cc(O)ccc2O)(C(=O)O)OC1)COC(=O)/C=C/c1ccc(O)cc1 [(−)-2, (R)-2-(2-(2,5-dihydroxyphenyl)-2-oxoethyl)-6-((E)-5-(((E)-3-(4-hydroxyphenyl)acryloyl)oxy)-4-methylpent-3-en-1-yl)-2,3,4,7-tetrahydrooxepine-2-carboxylic acid]",> 160 µM,–,–,–,–

# Reference: publication PMC6983046, “Meroterpenoids from the Fungus Ganoderma sinensis and First Absolute Configuration Clarification of Zizhine H” (Molecules, 2019)
